Laboratory results from US5789383A, “Bradykinin antagonists for the prophylaxis or treatment of virus diseases” (Hoechst Aktiengesellschaft, priority 1993, dated 1998).

Tested on: HSV-1
Test: HOE 140 in combination with acyclovir on HSV-1 skin lesions in hairless mice, Experiment 24/94
Format: in vivo
Details: acyclovir 0.05% orally day 3-7, no HOE 140
Description: Investigation of the Action of HOE 140 on Skin Lesions Caused by HSV-1 in Hairless Mice in Combination with Acyclovir
HOE 140 was administered twice daily either topically as a 2% strength cream in a neutral base or subcutaneously with 2 mg/kg per dosage. Acyclovir was administered as a 0.05% strength solution in the drinking water.
Administration of acyclovir day 3-7
Administration of HOE 140 day 3-7 or 0-7

Nc1nc2c(ncn2COCCO)c(=O)[nH]1 [Acyclovir, acyclovir]
Average survival time: 7.3 ± 1.2 days
Survivors/group size (chi^2 test not significant): 2/8
Animals with zoster formation (group size 8): 7
